Assay results published in patent US20250186452A1, “NOVEL USE OF QUINOLINE COMPOUND” (TARAPEUTICS SCIENCE INC., priority 2022, published 2025).

Experiments:
M-NSF-60 = assay: Proliferation of M-NSF-60 cells with M-CSF (CCK-8, 72 hours); assay type: cell-based, mouse; settings: Mus musculus; M-CSF 50 ng/ml in medium, 72 hours incubation, CCK-8; read-out: M-NSF-60 (GI50/μM)
Procedure: (§1) The incubated cells were detected by CCK-8 (purchased from MedChem Express, China) cell viability detection kit (CCK-8 can be reduced by dehydrogenases in living cells to a highly water-soluble yellow formazan product, and the amount of the generated formazan product is proportional to the number of living cells). The number of living cells was quantified by a microplate reader, and the GI50 for each compound was calculated (the results are shown in Table 2).

TEL-CSF1R-BaF3 = biological target: T1, TEL-CSF1R-BaF3 (Homo sapiens, UniProt P07333); assay: Proliferation of TEL-CSF1R-BaF3 cells (CCK-8, 72 hours); assay type: cell-based; settings: 72 hours incubation, CCK-8
T1 construct: expressed in transfected cells; host or cells: mouse BaF3 cells (ATCC), retroviral transduction with MSCV-Puro vector, IL-3 withdrawn; the other entry of the earlier key: ETV6 (P41212, Transcription factor ETV6)
T1 sequence (P07333 582-910 limits assumed): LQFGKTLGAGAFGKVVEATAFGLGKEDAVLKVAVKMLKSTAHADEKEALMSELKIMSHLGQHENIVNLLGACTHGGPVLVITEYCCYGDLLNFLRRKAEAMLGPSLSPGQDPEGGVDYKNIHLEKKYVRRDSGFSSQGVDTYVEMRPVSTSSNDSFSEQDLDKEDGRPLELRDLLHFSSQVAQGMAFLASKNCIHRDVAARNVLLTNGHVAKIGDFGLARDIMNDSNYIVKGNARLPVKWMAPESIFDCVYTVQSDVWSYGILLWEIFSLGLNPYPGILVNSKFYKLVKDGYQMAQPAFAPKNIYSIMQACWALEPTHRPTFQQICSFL
Procedure: as §1
The construction method of the TEL-CSF1R-BaF3 cell line (a cell line stably expressing CSF1R kinase) was as follows: the sequence of human CSF1R kinase region was amplified by PCR and inserted into the MSCV-Puro vector (Clontech) with an N-terminal TEL fragment, and stably transferred into mouse BaF3 cells (purchased from ATCC, USA) by a retroviral method, and IL-3 growth factor was removed, finally a cell line dependent on CSF1R transferred protein was obtained.

MC38 cells = assay: In vivo efficacy in MC38 cell tumor transplantation mouse model; settings: 50 mg/kg oral once a day
Procedure: (§2) In this example, the experimental effects of Compound 2 and the control compound PLX3397 (purchased from MedChem Express, China) in MC38 and 4T1 mouse models were tested respectively.
(§3) The experimental procedure was as follows: • (1) C57BL/6J male mice for use as MC38 transplanted tumor model and Balb/c male mice for use as 4T1 transplanted tumor model, which were 6 weeks old, were purchased from GemPharmatech Co., Ltd, Jiangsu. All the above mice were raised in an SPF laboratory, and the drinking water and padding had been sterilized by high pressure sterilization. All operations related to mice were performed under sterile conditions. • (2) On day 0, approximately 1×10^6 MC38 cells (purchased from ATCC) were injected subcutaneously into the left back of each of the C57BL/6J mice, and approximately 1×10^6 4T1 cells (purchased from ATCC) were injected subcutaneously into the left back of each of the Balb/c mice. • (3) For the MC38 mouse model, starting from the 6th day, the corresponding mice were orally administered with methylcellulose (HKI) (purchased from China National Pharmaceutical Group Corporation) solvent once a day (5 mice); Compound 2 at a dose of 50 mg/kg mouse weight once a day (5 mice); PLX3397 at a dose of 50 mg/kg mouse weight once a day (5 mice). For the 4T1 mouse model, starting from the 6th day, the corresponding mice were orally administered with 10% HS-15 (purchased from BASF, Germany) solvent (5 mice); Compound 2 at a dose of 50 mg/kg mouse weight once a day (5 mice); PLX3397 at a dose of 50 mg/kg mouse weight once a day (5 mice). • (4) Starting from the 6th day, the length/width of the subcutaneous tumor was measured with a vernier caliper every day, and the weight of the mice was recorded every day to determine the effects of Compound 2 and control compound PLX3397 on the weight of mice in different model mice. The results are shown in FIGS. 3 and 6. • (5) The growth trends of subcutaneous tumors in mice of different models were statistically analyzed. The tumor volume was calculated using the following method: length×width×width/2 mm^3. The results are shown in FIGS. 4 and 7. • (6) Isolation of tumor-infiltrating lymphocytes: Tumor tissue was first minced (tissue block less than 1 mm^3) with a surgical blade, resuspended in 6 ml of digestion solution (collagenase IV and 0.005% DNaseI enzyme, both purchased from Sigma, USA), and the mixture was transferred to a 15-ml centrifuge tube. The centrifuge tube was then placed in a shaker at 37° C. and digested with shaking at 220 r/min for 2 hours. The cells were sieved through a 200-mesh sieve and collected in a 50-ml centrifuge tube, and centrifuged at 1500 rpm for 10 minutes. The supernatant was then discarded, and 10 ml of DMEM medium (10% FBS) (purchased from GIBCO, USA) was added to the tube to terminate the digestion. The tube was placed in a centrifuge, and centrifuged at 1500 rpm for another 10 minutes. The supernatant was discarded. At the same time, Percoll separation solution (purchased from Millipore, USA) was prepared, and 90% Percoll separation working solution was prepared using 10×PBS. To a 15 ml centrifuge tube, 3-4 ml of 70% Percoll separation solution was added. The cells were resuspended in 4 ml of 40% Percoll separation solution, and the cell mixture was added to the 70% Percoll separation solution. The centrifuge tube was placed in a centrifuge and subjected to density gradient centrifugation at 25° C., 1260 g, for 30 minutes (speed up 5, speed down 0). After the centrifugation, the centrifuge tube was placed on a centrifuge tube rack, the middle leukocyte layer was aspirated with a pipette, and added to 10 ml of PBS, they were mixed well and placed in a centrifuge, and centrifuged at 1500 rpm. The cell supernatant was discarded after 10 min and the cells were resuspended in 5 ml of PBS, centrifuged at 1500 rpm for another 10 min, and the washing process was repeated once. The cells obtained were leukocytes in the tumor tissue. […]

4T1 cells = assay: In vivo efficacy in 4T1 cell tumor transplantation mouse model; settings: 4T1 model, 50 mg/kg oral once a day
Procedure: as §2, §3

Row | SMILES | GI50 (M-NSF-60) | GI50 (TEL-CSF1R-BaF3) | toxicity (mouse body weight) (MC38 cells; FIG. 3) | inhibition effect of mouse tumors (MC38 cells; FIG. 4) | toxicity (mouse body weight) (4T1 cells; FIG. 6) | inhibition effect of mouse tumors (4T1 cells; FIG. 7)
1 | COc1cc2nccc(Oc3ccc(NC(=O)Cc4ccc(Cl)c(C(F)(F)F)c4)cc3Cl)c2cc1OC [Example 38, N-(3-chloro-4-((6,7-dimethoxyquinolin-4-yl)oxy)phenyl)-2-(4-chloro-3-(trifluoromethyl)phenyl)acetamide] | 0.32 µM | 0.026 µM |  |  |  | 
2 | COc1cc2nccc(Oc3ccc(NC(=O)Cc4ccc(Cl)c(C(F)(F)F)c4)cc3C#N)c2cc1OC [Example 39, N-(3-cyano-4-((6,7-dimethoxyquinolin-4-yl)oxy)phenyl)-2-(4-chloro-3-(trifluoromethyl)phenyl)acetamide] | 0.61 µM | 0.022 µM |  |  |  | 
3 | COc1cc2nccc(Oc3ccc(NC(=O)Cc4ccccc4C(F)(F)F)cc3)c2cc1OC [Example 40, N-(4-((6,7-dimethoxyquinolin-4-yl)oxy)phenyl)-2-(2-(trifluoromethyl)phenyl)acetamide] | 0.091 µM | 0.007 µM |  |  |  | 
4 | FC(F)(F)c1ccc(CNc2ccc(Cc3c[nH]c4ncc(Cl)cc34)cn2)cn1 [PLX3397, reference compound] |  |  | no obvious toxicity | good inhibition effect of mouse tumors | no obvious toxicity | good inhibition effect of mouse tumors
